From US10618918B2, “Substituted boronic acids as antimicrobials” (priority 2015, dated 2020)

Assays:
KP1004 KPC-2 [1] = assay: Biapenem potentiation (MPC@1), strain KP1004 KPC-2; type: cell-based; conditions: minimum BLI concentration inhibiting growth with biapenem 1 μg/mL; tested up to 40 μg/mL
Protocol: (§1) Biapenem was present in the test medium at 1 μg/mL. […] Table 3 summarizes the BLI potency of biapenem potentiation (MPC@1) for two strains overexpressing class A (KPC) and class D (OXA-48) carbapenemases. Biapenem MIC for each strain is also shown.

ec308 SHV-5 = assay: Aztreonam potentiation (MPC@4), strain ec308 SHV-5; conditions: minimum BLI concentration inhibiting growth with aztreonam 4 μg/mL; tested up to 40 μg/mL
AB1053 OXA-72 = assay: Meropenem potentiation (MPC@8), strain AB1053 OXA-72; type: cell-based, Acinetobacter baumannii; conditions: minimum BLI concentration inhibiting growth with meropenem 8 μg/mL; tested up to 20 μg/mL
AB1054 OXA-23 = assay: Meropenem potentiation (MPC@8), strain AB1054 OXA-23; type: cell-based, Acinetobacter baumannii; conditions: minimum BLI concentration inhibiting growth with meropenem 8 μg/mL; tested up to 20 μg/mL
KP1004 KPC-2 [2] = assay: Aztreonam potentiation (MPC@4), strain KP1004 KPC-2; conditions: minimum BLI concentration inhibiting growth with aztreonam 4 μg/mL; tested up to 40 μg/mL
KP1009 CTX-M-15 = assay: Aztreonam potentiation (MPC@4), strain KP1009 CTX-M-15; conditions: minimum BLI concentration inhibiting growth with aztreonam 4 μg/mL; tested up to 40 μg/mL
ECL1002 = assay: Aztreonam potentiation (MPC@4), strain ECL1002; conditions: minimum BLI concentration inhibiting growth with aztreonam 4 μg/mL; tested up to 40 μg/mL
EC1010 CMY-6 = assay: Aztreonam potentiation (MPC@4), strain EC1010 CMY-6; conditions: minimum BLI concentration inhibiting growth with aztreonam 4 μg/mL; tested up to 40 μg/mL
KP1086 OXA-48 = assay: Biapenem potentiation (MPC@1), strain KP1086 OXA-48; type: cell-based; conditions: minimum BLI concentration inhibiting growth with biapenem 1 μg/mL; tested up to 40 μg/mL
Protocol: as §1

KP1005 CTX-M-14 = assay: Tigemonam potentiation (MPC@4), strain KP1005 CTX-M-14; conditions: minimum BLI concentration inhibiting growth with tigemonam 4 μg/mL; tested up to 40 μg/mL
KP1010 SHV-12 = assay: Aztreonam potentiation (MPC@4), strain KP1010 SHV-12; conditions: minimum BLI concentration inhibiting growth with aztreonam 4 μg/mL; tested up to 40 μg/mL
ec302 TEM-10 = assay: Aztreonam potentiation (MPC@4), strain ec302 TEM-10; conditions: minimum BLI concentration inhibiting growth with aztreonam 4 μg/mL; tested up to 40 μg/mL
[3] = molecular target: purified class A, C and D enzymes (β-lactamases) (Klebsiella pneumoniae, UniProt Q6XEC0); assay: biochemical; type: biochemical; conditions: purified OXA-48; nitrocefin (NCF) as reporter substrate
[4] = molecular target: T1, purified class A, C and D enzymes (β-lactamases) (Pseudomonas aeruginosa, UniProt P24735); assay: biochemical; type: biochemical
T1 construct: rows headed: Ki (Pa-AmpC, NCF), uM; other: purified Pa-AmpC; nitrocefin (NCF) as reporter substrate

[5] = molecular target: purified class A, C and D enzymes (β-lactamases) (Klebsiella pneumoniae, UniProt Q9F663); assay: biochemical; type: biochemical; conditions: purified KPC-2; nitrocefin (NCF) as reporter substrate
[6] = molecular target: T2, purified class A, C and D enzymes (β-lactamases) (Acinetobacter baumannii, UniProt Q9L4P2); assay: biochemical; type: biochemical; conditions: purified OXA-23; nitrocefin (NCF) as reporter substrate
T2 construct: rows headed: Ki (OXA-23, NCF), uM; other: purified OXA-23; nitrocefin (NCF) as reporter substrate

[7] = molecular target: purified class A, C and D enzymes (β-lactamases) (Enterobacter cloacae, UniProt P05364); assay: biochemical; type: biochemical
[8] = molecular target: purified class A, C and D enzymes (β-lactamases) (Escherichia coli, UniProt Q9L5C7); assay: biochemical; type: biochemical; conditions: purified CTX-M-14; nitrocefin (NCF) as reporter substrate
purified class A, C and D enzymes (β-lactamases) (Escherichia coli, UniProt Q9L5C7), sequence (Q9L5C7 entry or part of it): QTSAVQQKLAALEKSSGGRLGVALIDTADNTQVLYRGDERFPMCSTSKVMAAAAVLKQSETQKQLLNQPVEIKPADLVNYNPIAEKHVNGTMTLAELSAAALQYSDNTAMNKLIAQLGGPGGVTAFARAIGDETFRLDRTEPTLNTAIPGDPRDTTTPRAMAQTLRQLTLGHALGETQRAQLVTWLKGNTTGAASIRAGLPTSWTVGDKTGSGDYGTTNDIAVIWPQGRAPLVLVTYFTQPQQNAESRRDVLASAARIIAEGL

T1 sequence (P24735 whole entry): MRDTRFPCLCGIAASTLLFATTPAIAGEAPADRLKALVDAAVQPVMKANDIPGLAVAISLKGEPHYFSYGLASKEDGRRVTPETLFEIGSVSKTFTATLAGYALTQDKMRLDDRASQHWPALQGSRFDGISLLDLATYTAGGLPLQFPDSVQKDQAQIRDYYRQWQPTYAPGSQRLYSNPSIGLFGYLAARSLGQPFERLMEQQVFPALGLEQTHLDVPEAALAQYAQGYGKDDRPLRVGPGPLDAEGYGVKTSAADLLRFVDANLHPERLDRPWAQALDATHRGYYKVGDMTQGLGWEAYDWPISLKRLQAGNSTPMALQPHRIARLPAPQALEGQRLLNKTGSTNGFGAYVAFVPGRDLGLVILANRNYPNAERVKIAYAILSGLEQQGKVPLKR
purified class A, C and D enzymes (β-lactamases) (Enterobacter cloacae, UniProt P05364), sequence (P05364 21-381): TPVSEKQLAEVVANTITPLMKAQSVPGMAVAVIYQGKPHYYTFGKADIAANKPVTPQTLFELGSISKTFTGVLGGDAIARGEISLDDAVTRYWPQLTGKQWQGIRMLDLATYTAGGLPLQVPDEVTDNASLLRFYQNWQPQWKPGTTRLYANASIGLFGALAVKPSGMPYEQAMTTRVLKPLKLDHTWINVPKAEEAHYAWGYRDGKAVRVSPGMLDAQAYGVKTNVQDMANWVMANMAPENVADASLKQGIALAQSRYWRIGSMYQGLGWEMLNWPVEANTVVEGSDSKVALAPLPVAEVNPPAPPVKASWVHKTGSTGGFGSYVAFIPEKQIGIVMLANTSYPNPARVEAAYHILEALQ
T2 sequence (Q9L4P2 whole entry): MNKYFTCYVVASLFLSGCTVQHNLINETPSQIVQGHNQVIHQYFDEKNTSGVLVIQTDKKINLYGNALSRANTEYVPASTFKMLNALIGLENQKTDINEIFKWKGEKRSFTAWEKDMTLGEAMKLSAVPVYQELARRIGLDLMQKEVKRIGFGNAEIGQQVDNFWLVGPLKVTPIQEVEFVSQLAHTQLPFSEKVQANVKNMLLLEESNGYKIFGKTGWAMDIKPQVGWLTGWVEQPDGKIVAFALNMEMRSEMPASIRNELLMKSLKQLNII

Structure (SMILES) | BPM MPC1 KP1004 KPC-2 (KP1004 KPC-2 [1]) | AZT MPC4 SHV-5 ec308 (ec308 SHV-5) | MPM MPC8 AB1053 OXA-72 (AB1053 OXA-72) | MPM MPC8 AB1054 OXA-23 (AB1054 OXA-23) | AZT MPC4 KPC-2 KP1004 (KP1004 KPC-2 [2]) | AZT MPC4 CTX-M-15 KP1009 (KP1009 CTX-M-15) | AZT MPC4 ECL1002 (ECL1002) | AZT MPC4 CMY-6 EC1010 (EC1010 CMY-6) | BPM MPC1 OXA-48 KP1086 (KP1086 OXA-48) | TIG MPC4 CTX-M-14 KP1005 (KP1005 CTX-M-14) | AZT MPC4 SHV-12 KP1010 (KP1010 SHV-12) | AZT MPC4 TEM-10 ec302 (ec302 TEM-10) | Ki (OXA-48, NCF), uM [3] | Ki [4] [nM] | Ki (KPC-2, NCF), uM [5] | Ki [6] [nM] | Ki (P99, NCF), uM [7] | Ki (CTX-M-14, NCF), uM [8]
COc1ccc2c(c1C(=O)[O-])O[B-](O)(O)[C@@H](C)C2.[Na+].[Na+] [Compound 11, Disodium; (3S)-4,4-dihydroxy-8-methoxy-3-methyl-5-oxa-4-boranuidabicyclo[4.4.0]deca-1(6),7,9-triene-7-carboxylate] | X (X = MPC@1 ≤ 5 μg/mL) | Y (Y = 5 μg/mL < MPC@4 ≤ 20 μg/mL) | X (X = MPC@1 ≤ 5 μg/mL) | Y (Y = 5 μg/mL < MPC@1 ≤ 20 μg/mL) | Y (Y = 5 μg/mL < MPC@4 ≤ 20 μg/mL) | Y (Y = 5 μg/mL < MPC@4 ≤ 20 μg/mL) | Y (Y = 5 μg/mL < MPC@4 ≤ 20 μg/mL) | X (X = MPC@4 ≤ 5 μg/mL) | Y (Y = 5 μg/mL < MPC@1 ≤ 20 μg/mL) | Z (Z = MPC@4 > 20 μg/mL) | Y (Y = 5 μg/mL < MPC@4 ≤ 20 μg/mL) | Y (Y = 5 μg/mL < MPC@4 ≤ 20 μg/mL) | X (X = Ki ≤ 0.1 μM) | < 100 | X (X = Ki ≤ 0.1 μM) | < 100 | X (key: X = Ki ≤ 0.1 μM; Y = 0.1 μM < Ki ≤ 1 μM; Z = Ki > 1 μM) | X (X = Ki ≤ 0.1 μM)
COc1ccc2c(c1C(=O)[O-])O[B-](O)(O)[C@@H](CCO)C2.[Na+].[Na+] [Compound 12, Disodium; (3R)-4,4-dihydroxy-3-(2-hydroxyethyl)-8-methoxy-5-oxa-4-boranuidabicyclo[4.4.0]deca-1(6),7,9-triene-7-carboxylate] | X (X = MPC@1 ≤ 5 μg/mL) | Y (Y = 5 μg/mL < MPC@4 ≤ 20 μg/mL) | Y (Y = 5 μg/mL < MPC@1 ≤ 20 μg/mL) | Y (Y = 5 μg/mL < MPC@1 ≤ 20 μg/mL) | Y (Y = 5 μg/mL < MPC@4 ≤ 20 μg/mL) | Y (Y = 5 μg/mL < MPC@4 ≤ 20 μg/mL) | Y (Y = 5 μg/mL < MPC@4 ≤ 20 μg/mL) | Y (Y = 5 μg/mL < MPC@4 ≤ 20 μg/mL) | Y (Y = 5 μg/mL < MPC@1 ≤ 20 μg/mL) | Z (Z = MPC@4 > 20 μg/mL) | Y (Y = 5 μg/mL < MPC@4 ≤ 20 μg/mL) | Z (Z = MPC@4 > 20 μg/mL) | X (X = Ki ≤ 0.1 μM) | 100 to 1000 | X (X = Ki ≤ 0.1 μM) | 100 to 1000 | X (key: X = Ki ≤ 0.1 μM; Y = 0.1 μM < Ki ≤ 1 μM; Z = Ki > 1 μM) | X (X = Ki ≤ 0.1 μM)
O=C(O)c1c(-n2ccnn2)ccc2c1O[B-](O)(O)CC2 [Compound 13, Disodium; 4,4-dihydroxy-8-(triazol-1-yl)-5-oxa-4-boranuidabicyclo[4.4.0]deca-1(6),7,9-triene-7-carboxylate] | X (X = MPC@1 ≤ 5 μg/mL) | X (X = MPC@4 ≤ 5 μg/mL) | X (X = MPC@1 ≤ 5 μg/mL) | X (X = MPC@1 ≤ 5 μg/mL) | X (X = MPC@4 ≤ 5 μg/mL) | X (X = MPC@4 ≤ 5 μg/mL) | X (X = MPC@4 ≤ 5 μg/mL) | X (X = MPC@4 ≤ 5 μg/mL) | X (X = MPC@1 ≤ 5 μg/mL) | X (X = MPC@4 ≤ 5 μg/mL) | X (X = MPC@4 ≤ 5 μg/mL) | X (X = MPC@4 ≤ 5 μg/mL) | X (X = Ki ≤ 0.1 μM) | < 100 | X (X = Ki ≤ 0.1 μM) | < 100 | X (key: X = Ki ≤ 0.1 μM; Y = 0.1 μM < Ki ≤ 1 μM; Z = Ki > 1 μM) | X (X = Ki ≤ 0.1 μM)
NCCc1cn(-c2ccc3c(c2C(=O)O)O[B-](O)(O)CC3)nn1 [Compound 14, Disodium; 8-[4-(2-aminoethyl)triazol-1-yl]-4,4-dihydroxy-5-oxa-4-boranuidabicyclo[4.4.0]deca-1(6),7,9-triene-7-carboxylate] | X (X = MPC@1 ≤ 5 μg/mL) | Y (Y = 5 μg/mL < MPC@4 ≤ 20 μg/mL) | X (X = MPC@1 ≤ 5 μg/mL) | X (X = MPC@1 ≤ 5 μg/mL) | X (X = MPC@4 ≤ 5 μg/mL) | Y (Y = 5 μg/mL < MPC@4 ≤ 20 μg/mL) | Z (Z = MPC@4 > 20 μg/mL) | Y (Y = 5 μg/mL < MPC@4 ≤ 20 μg/mL) | X (X = MPC@1 ≤ 5 μg/mL) | Z (Z = MPC@4 > 20 μg/mL) | X (X = MPC@4 ≤ 5 μg/mL) | Y (Y = 5 μg/mL < MPC@4 ≤ 20 μg/mL) | X (X = Ki ≤ 0.1 μM) | > 1000 | X (X = Ki ≤ 0.1 μM) | < 100 | Y (key: X = Ki ≤ 0.1 μM; Y = 0.1 μM < Ki ≤ 1 μM; Z = Ki > 1 μM) | X (X = Ki ≤ 0.1 μM)
O=C(O)c1c(-c2c[nH]nn2)ccc2c1O[B-](O)(O)CC2 [Compound 16, Disodium; 4,4-dihydroxy-8-(1H-triazol-5-yl)-5-oxa-4-boranuidabicyclo[4.4.0]deca-1(6),7,9-triene-7-carboxylate] | X (X = MPC@1 ≤ 5 μg/mL) | Y (Y = 5 μg/mL < MPC@4 ≤ 20 μg/mL) | X (X = MPC@1 ≤ 5 μg/mL) | Y (Y = 5 μg/mL < MPC@1 ≤ 20 μg/mL) | X (X = MPC@4 ≤ 5 μg/mL) | X (X = MPC@4 ≤ 5 μg/mL) | X (X = MPC@4 ≤ 5 μg/mL) | X (X = MPC@4 ≤ 5 μg/mL) | Y (Y = 5 μg/mL < MPC@1 ≤ 20 μg/mL) | Y (Y = 5 μg/mL < MPC@4 ≤ 20 μg/mL) | X (X = MPC@4 ≤ 5 μg/mL) | X (X = MPC@4 ≤ 5 μg/mL) | X (X = Ki ≤ 0.1 μM) | < 100 | X (X = Ki ≤ 0.1 μM) | < 100 | X (key: X = Ki ≤ 0.1 μM; Y = 0.1 μM < Ki ≤ 1 μM; Z = Ki > 1 μM) | X (X = Ki ≤ 0.1 μM)
O=C([O-])c1c(CSC2CNC2)ccc2c1O[B-](O)(O)CC2.[Na+].[Na+] [Compound 19, Disodium; 8-(azetidin-3-ylsulfanylmethyl)-4,4-dihydroxy-5-oxa-4-boranuidabicyclo[4.4.0]deca-1(6),7,9-triene-7-carboxylate] | X (X = MPC@1 ≤ 5 μg/mL) | X (X = MPC@4 ≤ 5 μg/mL) | X (X = MPC@1 ≤ 5 μg/mL) | X (X = MPC@1 ≤ 5 μg/mL) | X (X = MPC@4 ≤ 5 μg/mL) | X (X = MPC@4 ≤ 5 μg/mL) | Y (Y = 5 μg/mL < MPC@4 ≤ 20 μg/mL) | X (X = MPC@4 ≤ 5 μg/mL) | X (X = MPC@1 ≤ 5 μg/mL) | Z (Z = MPC@4 > 20 μg/mL) | X (X = MPC@4 ≤ 5 μg/mL) | Y (Y = 5 μg/mL < MPC@4 ≤ 20 μg/mL) | X (X = Ki ≤ 0.1 μM) | < 100 | X (X = Ki ≤ 0.1 μM) | < 100 | X (key: X = Ki ≤ 0.1 μM; Y = 0.1 μM < Ki ≤ 1 μM; Z = Ki > 1 μM) | X (X = Ki ≤ 0.1 μM)
